Experimental data as given in patent US20260053773A1, “PHARMACEUTICAL COMPOSITION AND USE THEREOF” (AUHUI TONGOO PHARMACEUTICAL TECHNOLOGY CO., LTD., priority 2022, published 2026).
“And” between values parts separate entries of the source, which are not always exact repeats. Equal values may be shown once. Read-outs that look alike come from different tables or passages of the source.

Key:
[1] = system: HK-2 cells; assay: Adhesion of COM crystals to HK-2 cells in vitro; assay type: cell-based; settings: Homo sapiens, 200 μM CA alone, compared with the blank group without inhibitor, read-out: inhibitory effect on COM crystal adhesion
From the text: (§1) Studies have shown that reducing calcium oxalate crystallization, crystal-cell interactions, and cellular damage can prevent stone formation to some extent.

[2] = system: human proximal tubule cells (HK-2); assay: Lactate dehydrogenase (LDH) release from HK-2 cells exposed to COM crystals; assay type: cell-based; settings: 200 μM CA, 20 μM GaA
From the text: as §1
Lactate dehydrogenase (LDH) is a cytoplasmic enzyme released into the extracellular space when the cell membrane ruptures, so the amount of LDH released can be used as a sign of cell membrane integrity.

[3] = system: human proximal tubule cells (HK-2); assay: Cell death/survival of HK-2 cells exposed to COM crystals; assay type: cell-based; settings: for synergistic enhancement order in improving cell activity: polyphenol (20 μM GaA, 20 μM EA, 40 μM PGA, 200 μM PrA) combined with citric acid 200 μM
Method: Studies have shown that reducing calcium oxalate crystallization, crystal-cell interactions, and cellular damage can prevent stone formation to some extent. On this basis, the present example further verified the combined effect of the pharmaceutical composition of citric acid (200 μM) and polyphenol molecules (20 μM GaA, 20 μM EA, 40 μM PGA, 200 µM PrA) in reducing cellular damage and crystal adhesion.
In order to explore the combined effects of the pharmaceutical composition on reducing crystal toxicity to cells, an in vitro model of direct exposure to COM crystals was selected in the present example to detect short-term cellular damage. In a culture medium environment with or without inhibitors, mature human proximal tubule cells (HK-2) were exposed to COM crystal suspension medium for the indicated times. […] However, in the presence of CA, the amount of cell death was reduced by 50% (FIG. 6).

[4] = related studies; cited from earlier work
[5] = Inhibition of COM crystal growth in three growth directions, inhibitors alone and in combination pairs; settings: for concentration of the single inhibitor achieving 10% inhibition of crystal growth / concentration of the single inhibitor achieving 30% inhibition of crystal growth / concentration of the single inhibitor achieving 70% inhibition of crystal growth / IC50: inhibitor alone; for IC50: read-out: concentration of the single inhibitor achieving 50% inhibition of crystal growth
Method: Different concentrations of citric acid (CA) and ellagic acid (EA) were added to 25 ml of deionized water, the supersaturation of the solution was controlled at S=2.4, and the growth process of the crystal was monitored.
The hollow symbols in the figure represent the concentration required for a single inhibitor to achieve a certain effect, and the same solid symbols represent the concentration required for a combination of the inhibitors to achieve the same effect.
Different concentrations of citric acid (CA) and gallic acid (GaA) were added to 25 ml of deionized water, and the growth process of the crystal was monitored.
Different concentrations of citric acid (CA) and pyrogallol (PGA) were added to 25 ml of deionized water, and the growth process of the crystal was monitored.
Different concentrations of citric acid (CA) and protocatechuic acid (PrA) were added to 25 ml of deionized water, and the growth process of the crystal was monitored.
Comparative Example 1 differed from Example 1 merely in that ellagic acid was replaced with albumin, and the other preparation methods were the same as those in Example 1.
Comparative Example 2 differed from Example 1 merely in that ellagic acid was replaced with o-hydroxybenzoic acid, and the other preparation methods were the same as those in Example 1.
Different concentrations of hydroxycitric acid (HCA) and ellagic acid (EA) were added to 25 ml of deionized water, supersaturation of the solution was controlled at S=2.4, and the growth process of the crystal was monitored.
Different concentrations of hydroxycitric acid (HCA) and gallic acid (GaA) were added to 25 ml of deionized water, and the growth process of the crystal was monitored.
Different concentrations of potassium citrate (KCA) and ellagic acid (EA) were added to 25 ml of deionized water, the supersaturation of the solution was controlled at S=2.4, and the growth process of the crystal was monitored.
Different concentrations of potassium citrate (KCA) and gallic acid (GaA) were added to 25 ml of deionized water, and the growth process of the crystal was monitored.

| SMILES | inhibition at 200 µM [1] [%] | LDH release compared with the control group [2] [%] | reduction of the amount of cell death ([3]; HK-2 cells exposed to COM crystals 24 hours, CA 200 μM) [%] | inhibitory effect on calcium oxalate crystallization [4] [%] | concentration of the single inhibitor achieving 10% inhibition of crystal growth ([5]; [001] direction) | concentration of the single inhibitor achieving 30% inhibition of crystal growth ([5]; [001] direction) | concentration of the single inhibitor achieving 70% inhibition of crystal growth ([5]; [001] direction) | IC50 ([5]; [001] direction) | concentration of the single inhibitor achieving 10% inhibition of crystal growth ([5]; [021] direction) | concentration of the single inhibitor achieving 30% inhibition of crystal growth ([5]; [021] direction) | concentration of the single inhibitor achieving 70% inhibition of crystal growth ([5]; [021] direction) | IC50 ([5]; [021] direction) | concentration of the single inhibitor achieving 10% inhibition of crystal growth ([5]; [121] direction) | concentration of the single inhibitor achieving 30% inhibition of crystal growth ([5]; [121] direction) | concentration of the single inhibitor achieving 70% inhibition of crystal growth ([5]; [121] direction) | IC50 ([5]; [121] direction) | synergistic enhancement order in improving cell activity [3] | effect compared with citric acid ([5]; inhibition of COM crystal growth) |
| --- | --- | --- | --- | --- | --- | --- | --- | --- | --- | --- | --- | --- | --- | --- | --- | --- | --- | --- |
| O=C(O)CC(O)(CC(=O)O)C(=O)O [CA, citric acid] | 30 | 195.17 | 50 | 60 | 0.0108 mM | 0.0369 mM | 0.1254 mM | 71 µM | 0.0121 mM | 0.0409 mM | 0.1380 mM | 79.5 µM | 0.0135 mM | 0.0458 mM | 0.1550 mM | 89 µM | – | – |
| O=c1oc2c(O)c(O)cc3c(=O)oc4c(O)c(O)cc1c4c23 [EA, ellagic acid] | – | – | – | – | 8.4e-06 mM and 1.04e-05 mM and 1.05e-05 mM | 3.86e-05 mM and 3.09e-05 mM and 3.85e-05 mM | 0.0001322 mM and 0.0001041 mM and 0.0001312 mM | 0.0761 µM and 0.0609 µM and 0.0763 µM | 1.17e-05 mM and 9.4e-06 mM and 1.16e-05 mM | 3.98e-05 mM and 3.2e-05 mM and 3.99e-05 mM | 0.0001369 mM and 0.0001095 mM and 0.0001358 mM | 0.0772 µM and 0.056 µM and 0.0771 µM | 1.64e-05 mM and 1.31e-05 mM and 1.65e-05 mM | 5.62e-05 mM and 4.49e-05 mM and 5.61e-05 mM | 0.0001884 mM and 0.00015 mM and 0.0001879 mM | 0.11 µM and 0.0888 µM | GaA>PcA>PGA>EA | – |
| O=C(O)c1cc(O)c(O)c(O)c1 [GaA, gallic acid] | – | – | – | – | 0.0003716 mM and 0.0004677 mM and 0.0004678 mM | 0.0015906 mM and 0.0012801 mM and 0.00159 mM | 0.0053799 mM and 0.0043049 mM and 0.0053797 mM | 3.1 µM and 2.4 µM | 0.0003743 mM and 0.0002994 mM and 0.0003744 mM | 0.0012912 mM and 0.0010221 mM and 0.001291 mM | 0.0043601 mM and 0.003488 mM and 0.00436 mM | 2.51 µM and 1.8 µM | 0.0004959 mM and 0.0003967 mM | 0.0016841 mM and 0.0013473 mM and 0.0016842 mM | 0.0056887 mM and 0.004551 mM and 0.0056881 mM | 3.27 µM and 2.62 µM | GaA>PcA>PGA>EA | – |
| O=C(O)CC(O)(C(=O)O)C(O)C(=O)O (stereo not drawn) [HCA, hydroxycitric acid] | – | – | – | – | 0.0088 mM | 0.0281 mM | 0.1003 mM | 56.1 µM | 0.0096 mM | 0.0320 mM | 0.1104 mM | 61 µM | 0.0110 mM | 0.0367 mM | 0.1240 mM | 72 µM | – | – |
| O=C([O-])CC(O)(CC(=O)[O-])C(=O)[O-].[K+].[K+].[K+] [KCA, potassium citrate] | – | – | – | – | 0.0106 mM | 0.0369 mM | 0.1253 mM | 70.9 µM | 0.0123 mM | 0.0401 mM | 0.1369 mM | 79.4 µM | 0.0135 mM | 0.0451 mM | 0.1547 mM | 88.1 µM | – | almost the same |
| Oc1cccc(O)c1O [PGA, pyrogallol] | – | – | – | – | 0.0021 mM | 0.0073 mM | 0.0245 mM | 14.2 µM | 0.0018 mM | 0.0062 mM | 0.0210 mM | 12.1 µM | 0.0027 mM | 0.0091 mM | 0.0309 mM | 17.7 µM | GaA>PcA>PGA>EA | – |
| O=C(O)c1ccc(O)c(O)c1 [PrA, protocatechuic acid] | – | – | – | – | 0.0255 mM | 0.0982 mM | – | 264 µM | 0.0187 mM | 0.0702 mM | – | 186 µM | 0.0307 mM | 0.1174 mM | – | 316 µM | GaA>PcA>PGA>EA | – |
